Assay results from patent publication US12129265B2, “Therapeutic agents and uses thereof” (Ankh Life Sciences Limited, priority 2020, dated 2024).
Where two headings read alike, the source gives them in different places.

How the values were obtained:
Experiment in all cases: CellTiter-Glo in vitro cell proliferation assay, Example 8
[1] = tested on: FaDu cells; assay type: cell-based, Human; conditions: read-out: Mean IC50
How it was run: (§1)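 72 h continuous exposure, 37 °C, humidified; conc. 0.0075–100 μM (DMSO); CellTiter-Glo luminescence, 60 min RT incubation before read.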

[2] = tested on: MM.1s cells; assay type: cell-based, Human; conditions: MM1.S; MM.IS, Human Myeloma, 72 hours; read-out: Mean IC50
How it was run: as §1

[3] = tested on: KMM-1 cells; assay type: cell-based, Human; conditions: read-out: Mean IC50
How it was run: as §1

[4] = tested on: AN3CA cells; assay type: cell-based, Human; conditions: Endometrial, read-out: Mean IC50
How it was run: as §1

[5] = tested on: A2780 cells; assay type: cell-based, Human; conditions: A2780, Ovarian, read-out: Mean IC50
How it was run: as §1

[6] = tested on: MIA PaCa-2 cells; assay type: cell-based, Human; conditions: MIA PaCa-2, Pancreatic, read-out: Mean IC50
How it was run: as §1

[7] = tested on: HEC-1a cells; assay type: cell-based, Human; conditions: Endometrial, read-out: Mean IC50
How it was run: as §1

[8] = tested on: KHM-1B cells; assay type: cell-based, Human; conditions: Human Myeloma, 72 hours, read-out: Mean IC50
How it was run: as §1

[9] = tested on: MDA-MB-468 cells; assay type: cell-based, Human; conditions: read-out: Mean IC50
How it was run: as §1

[10] = tested on: HCC70 cells; assay type: cell-based, Human; conditions: read-out: Mean IC50
How it was run: as §1

[11] = tested on: H929 cells; assay type: cell-based, Human; conditions: NCI-H929; H929, Human Myeloma, 72 hours; read-out: Mean IC50
How it was run: as §1

[12] = tested on: KMS-34 cells; assay type: cell-based, Human; conditions: read-out: Mean IC50
How it was run: as §1

[13] = tested on: A498 cells; assay type: cell-based, Human; conditions: read-out: Mean IC50
How it was run: as §1

[14] = tested on: MOLP-8 cells; assay type: cell-based, Human; conditions: read-out: Mean IC50
How it was run: as §1

[15] = tested on: OCI-LY3 cells; assay type: cell-based, Human; conditions: read-out: Mean IC50
How it was run: as §1

[16] = tested on: L363 cells; assay type: cell-based, Human; conditions: read-out: Mean IC50
How it was run: as §1

[17] = tested on: MDA-MB-231 cells; assay type: cell-based, Human; conditions: read-out: Mean IC50
How it was run: as §1

[18] = tested on: JIM1 cells; assay type: cell-based, Human; conditions: read-out: Mean IC50
How it was run: as §1

[19] = tested on: KMS-11 cells; assay type: cell-based, Human; conditions: KMS-11, Human Myeloma, 72 hours; read-out: Mean IC50
How it was run: as §1

[20] = tested on: DOHH-2 cells; assay type: cell-based, Human; conditions: read-out: Mean IC50
How it was run: as §1

[21] = tested on: H1975 (EGFR mut) cells; assay type: cell-based, Human; conditions: read-out: Mean IC50
How it was run: as §1

[22] = tested on: KMS-27 cells; assay type: cell-based, Human; conditions: KMS-27, Human Myeloma, 72 hours; read-out: Mean IC50
How it was run: as §1

[23] = tested on: SiHA cells; assay type: cell-based, Human; conditions: read-out: Mean IC50
How it was run: as §1

[24] = tested on: A2780CP cells; assay type: cell-based, Human; conditions: Ovarian, read-out: Mean IC50
How it was run: as §1

[25] = tested on: BxPC-3 cells; assay type: cell-based, Human; conditions: BxPC-3, Pancreatic, read-out: Mean IC50
How it was run: as §1

[26] = tested on: ASPC-1 cells; assay type: cell-based, Human; conditions: ASPC-1, Pancreatic, read-out: Mean IC50
How it was run: as §1

[27] = tested on: H1650 (EGFR mut) cells; assay type: cell-based, Human; conditions: read-out: Mean IC50
How it was run: as §1

[28] = tested on: RXF-393 cells; assay type: cell-based; conditions: Homo sapiens; RXF-393, Renal, 72 hours; read-out: Mean IC50
Protocol: (§2) In this Example, in vitro cell proliferation assays were performed using: (1) Human Myeloma tumor cell lines; (2) Human Lymphoma tumor cell lines; (3) Solid Human tumor cell lines; and (4) Parental, Lenalidomide resistant and Bortezomib resistant Jeko-1 Mantle cell Lymphoma tumor cell lines. The compounds tested were three diharmaline compounds, namely the 518B562 (or simply 562), 560, and 561 compounds. In addition, a monoharmaline product designated as 518F014 was also tested. This monoharmaline product had the following structure:
(§3) Each proliferation assay was carried out as follows. The test cells were plated in growth media using a 384-well microtiter plate at 50 μL volume. The cells were incubated for 24 hours at 37° C. in a humidified incubator. After 24 hours of incubation, the test compounds were added to the test wells in DSMO solvent, at concentrations ranging from 0.0075-100 μM. Control wells received equal volumes of DSMO, without compound. Following drugging, the cells were incubated for 72 hours at 37° C. in a humidified incubator. After this exposure, 100 μL of a 1:1 mixture of sterile water and CellTiter-Glo® reagent (Promega) was added to each well. The plates were then incubated for 60 minutes at room temperature, followed by recording the luminescence value of each well using a luminometer as a measure of cell proliferation.

[29] = tested on: Jeko-1 Bortezomib resistant cells; assay type: cell-based; conditions: Homo sapiens, Mantle Cell Lymphoma, 72 hours
Protocol: as §2, §3

[30] = tested on: Jeko-1 Lenalidomide resistant cells; assay type: cell-based; conditions: Homo sapiens, Mantle Cell Lymphoma, 72 hours
Protocol: as §2, §3

[31] = tested on: Jeko-1 Parental cells; assay type: cell-based; conditions: Homo sapiens, Mantle Cell Lymphoma, 72 hours
Protocol: as §2, §3

[32] = tested on: SU-DHL-6 cells; assay type: cell-based; conditions: Homo sapiens; SU-DHL-6, Diffuse Large B-Cell Lymphoma, 72 hours; read-out: Mean IC50
Protocol: as §2, §3

[33] = tested on: N87 cells; assay type: cell-based; conditions: Homo sapiens; N87, Gastric, 72 hours; read-out: Mean IC50
Protocol: as §2, §3

[34] = tested on: SU-DHL-4 cells; assay type: cell-based; conditions: Homo sapiens; SU-DHL-4, Diffuse Large B-Cell Lymphoma, 72 hours; read-out: Mean IC50
Protocol: as §2, §3

[35] = tested on: RPMI-8226 cells; assay type: cell-based, Human; conditions: RPMI-8226, HMM
How it was run: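 After 24 h plating, cells exposed to compound in DMSO over 0.0075–100 µM for 72 h at 37 °C. Viability read by CellTiter-Glo luminescence after 60 min at room temperature, relative to DMSO controls.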

[36] = Homo sapiens, Squamous, 72 hours

Question: How did the IC50 [1, 36] turn out when COc1ccc2c(c1)=NC1=C(CCc3ccc(O)c(OC)c3)NCCC=21 [518F014] was run?
Answer: Its IC50 is > 100 µM.

Question: What about the IC50 [2] of the same molecule?
Answer: Its IC50 is > 100 µM.

Question: And the IC50 ([3]; KMM-1, Human Myeloma, 72 hours)?
Answer: Its IC50 is 82.2 µM.

Question: And the IC50 ([4]; Homo sapiens, AN3-CA, 72 hours)?
Answer: The IC50 was 88.1 µM.

Question: And the IC50 ([5]; Homo sapiens, 72 hours)?
Answer: The IC50 was 70.9 µM.

Question: What about the IC50 ([6]; Homo sapiens, 72 hours) of the same molecule?
Answer: Its IC50 is > 100 µM.

Question: What about the IC50 ([7]; Homo sapiens, 72 hours) of the same molecule?
Answer: Its IC50 is > 100 µM.

Question: And the IC50 [8]?
Answer: The IC50 was 94.1 µM.

Question: And the IC50 ([9]; Homo sapiens, MDA-MB-468, Triple Negative Breast, 72 hours)?
Answer: Its IC50 is > 100 µM.

Question: And the IC50 ([10]; Homo sapiens, HCC70, Triple Negative Breast, 72 hours)?
Answer: The IC50 was > 100 µM.

Question: And the IC50 [11]?
Answer: The IC50 was 80.3 µM.

Question: And the IC50 ([12]; KMS-34, Human Myeloma, 72 hours)?
Answer: Its IC50 is > 100 µM.

Question: What about the IC50 ([13]; Homo sapiens, A498, Renal, 72 hours) of the same molecule?
Answer: Its IC50 is > 100 µM.

Question: What about the IC50 ([14]; MOLP-8, Human Myeloma, 72 hours) of the same molecule?
Answer: Its IC50 is 86.4 µM.

Question: What about the IC50 ([15]; Homo sapiens, OCI-LY3, Diffuse Large B-Cell Lymphoma, 72 hours) of the same molecule?
Answer: Its IC50 is > 100 µM.

Question: What about the IC50 ([16]; L-363, L363, Human Myeloma, 72 hours) of the same molecule?
Answer: The IC50 was 99.1 µM.

Question: And the IC50 ([17]; Homo sapiens, MDA-MB-231, Triple Negative Breast, 72 hours)?
Answer: The IC50 was 78.2 µM.

Question: What about the IC50 ([18]; JIM1, Human Myeloma, 72 hours) of the same molecule?
Answer: The IC50 was 85.2 µM.

Question: And the IC50 [19]?
Answer: Its IC50 is > 100 µM.

Question: What about the IC50 ([20]; Homo sapiens, DOHH-2, Diffuse Large B-Cell Lymphoma, 72 hours) of the same molecule?
Answer: Its IC50 is > 100 µM.

Question: And the IC50 ([21]; Homo sapiens, NCI-H1975, Non Small Cell Lung, 72 hours)?
Answer: Its IC50 is 79.7 µM.

Question: And the IC50 [22]?
Answer: The IC50 was 91.2 µM.

Question: What about the IC50 [23, 36] of the same molecule?
Answer: Its IC50 is > 100 µM.

Question: What about the IC50 ([24]; Homo sapiens, A2780C/P, 72 hours) of the same molecule?
Answer: Its IC50 is > 100 µM.

Question: What about the IC50 ([25]; Homo sapiens, 72 hours) of the same molecule?
Answer: The IC50 was 98.7 µM.

Question: And the IC50 ([26]; Homo sapiens, ASPC1, 72 hours)?
Answer: The IC50 was 87.1 µM.

Question: What about the IC50 ([27]; Homo sapiens, NCI-H1650, Non Small Cell Lung, 72 hours) of the same molecule?
Answer: Its IC50 is > 100 µM.

Question: And the IC50 [28]?
Answer: Its IC50 is 96.5 µM.

Question: And the IC50 [29]?
Answer: Its IC50 is 87.6 µM.

Question: What about the IC50 [30] of the same molecule?
Answer: Its IC50 is 79.4 µM.

Question: And the IC50 [31]?
Answer: Its IC50 is 89.4 µM.

Question: What about the IC50 [32] of the same molecule?
Answer: Its IC50 is 50 µM.

Question: What about the IC50 [33] of the same molecule?
Answer: The IC50 was 40.6 µM.

Question: And the IC50 [34]?
Answer: The IC50 was 91.3 µM.

Question: With COc1ccc2c3c([nH]c2c1)C(CC(CC1=NCCc2c1[nH]c1cc(OC)ccc21)C1CCCCC1)=NCC3 [compound 30] as the molecule, how does the IC50 [35] read?
Answer: Its IC50 is 4.3 µM.

Question: What about the IC50 ([1]; H&N - SC) of the same molecule?
Answer: Its IC50 is 6.82 µM.

Question: What about the IC50 ([3]; KMM-1, HMCL-A) of the same molecule?
Answer: The IC50 was 5.81 µM.

Question: What about the IC50 [4] of the same molecule?
Answer: Its IC50 is 5.01 µM.

Question: And the IC50 [5]?
Answer: Its IC50 is 6.45 µM.

Question: What about the IC50 [6] of the same molecule?
Answer: The IC50 was 5.47 µM.

Question: And the IC50 [7]?
Answer: Its IC50 is 9.91 µM.

Question: What about the IC50 ([9]; MDA-MB-468, TNBC) of the same molecule?
Answer: The IC50 was 7.46 µM.

Question: What about the IC50 ([10]; HCC70, TNBC) of the same molecule?
Answer: Its IC50 is 18.5 µM.

Question: What about the IC50 ([12]; KMS-34, HMCL-B) of the same molecule?
Answer: The IC50 was 4.81 µM.

Question: What about the IC50 ([13]; A498, RCC) of the same molecule?
Answer: The IC50 was 17.1 µM.

Question: And the IC50 ([14]; MOLP-8, MM IgD)?
Answer: The IC50 was 2.7 µM.

Question: What about the IC50 ([15]; OCI-LY3, ABC-DLBCL) of the same molecule?
Answer: The IC50 was 7.28 µM.

Question: And the IC50 ([16]; L363, PCL/MM)?
Answer: Its IC50 is 5.57 µM.

Question: What about the IC50 ([17]; MDA-MB-231, TNBC) of the same molecule?
Answer: The IC50 was 11.1 µM.

Question: And the IC50 ([18]; JIM1, HMCL)?
Answer: The IC50 was 7.07 µM.

Question: And the IC50 ([20]; DoHH-2, GCB-DLBCL)?
Answer: Its IC50 is 5.36 µM.

Question: What about the IC50 ([21]; NSCLC) of the same molecule?
Answer: The IC50 was 11.4 µM.

Question: What about the IC50 ([23]; Cervical - SC) of the same molecule?
Answer: The IC50 was 17.8 µM.

Question: And the IC50 [24]?
Answer: Its IC50 is 8.55 µM.

Question: And the IC50 [25]?
Answer: The IC50 was 7.73 µM.

Question: And the IC50 [26]?
Answer: The IC50 was 11 µM.

Question: What about the IC50 ([27]; NSCLC) of the same molecule?
Answer: Its IC50 is 16.6 µM.
